Holding throughout (assay type): in vivo, Macaque Rh. monkeys
In assay [1] the test system is T-helpers. The assay is described as follows: T-helpers in monkeys after kidney transplantation. The settings on record: for T-helpers: 50 μg/kg IV, 2 days pre-op. 30. How it is done:
(§1) FLOW CYTOFLUOROGRAFIC ANALYSIS OF LYMPHOCYTE SUBSETS
(§2) Blood samples (100 μl of whole blood) were placed into a 12×17 tube. To these cells 20 μl of purified monoclonal antibodies were added with specificity for human cytotoxic/suppressor cells anti-Leu-2a (CD8), human helper/inducer anti-Leu-3a (CD4) and FITC conjugated monoclonal antibodies with specificity for natural killer cells-anti-Leu11c (CD16) (Becton Dickinson, San Jose). After 30 minutes incubation on ice, the cells were washed once and 20 μl of goat-antimouse chain phycoerythrin (Sigma P1286) conjugate were added to the tube with anti-Leu-2a and anti-Leu-3a monoclonal antibodies.
(§3) After erythrocyte lysing with FACS lysing solution (Becton Dickinson, San Jose) the cells were analyzed on FACScan flow cytometer (Becton Dickinson, San Jose) with scatter gate set on lymphocyte fraction.
(§4) The experiments were performed on 4 year-old Macaque Rh. monkeys. Each cohort consisted of 3 animals. […] The results of the experiments were evaluated clinically: by the presence or absence of urination from the ureterocutaneostoma.
After intravenous anesthesia with Ketalar®, an extraperitoneal access to the left kidney was performed through layer by layer cuts to the left lumbar region. The kidney was excised from the surrounding tissues. A clamp was applied to the vessel limb; the artery, the vein and the ureter each were prepared for anastomosis separately. The kidney was excised and transferred for hypothermal conservation in Collins' solution.
The donor kidney was transplanted into the recipient. […] anastomosis was performed: the graft arteries and veins attached to the appropriate recipient kidney vessels through plastic tubes. The kidney having been resuscitated by in blood flow, acquired the normal color and turgor. Additional hemostasis in the wound was performed. Ureterocutaneostomy was performed, which was followed by applying layer-upon-layer sutures on the wound and its aseptic dressing.
The monkeys were narcotized by means of the intravenous anesthesia with Ketalar® and subjected to medial laparotomy from the xiphoid down to the pubic joint. Access to the left Kidney was made extraperitoneally. The kidney was teased from the surrounding tissues. A clamp was put on the vessel limb; the artery, the vein and the ureter were dressed separately; the kidney was cut and transferred for hypothermal conservation in Collins' solution.
The internal iliac artery and the external iliac vein were extracted extra-peritoneally, immobilized and prepared for anastomosis. The donor kidney was transferred to the recipient. Vessel anastomosis was performed: the graft arteries were anastomosed with the internal iliac artery according to the end-to-end method and the graft veins were anastomosed with the external iliac vein according to the end-to-side method. The kidney having been engaged in blood flow, acquired a normal color and turgor. Bleeding on the line of the arterial anastomosis was stopped by making additional sutures. Ureterocutaneostomy was performed. The abdominal cavity was lavaged with the solution of disodium carbenicillin. Layer-upon-layer sutures on the wound were applied. Aseptic dressing was performed.
(§5) During our experiments we have divided monkeys into two groups, three monkeys to each group. For the first group (2'-5')A2 Ar-epoxy was administered intravenously at concentration of 50 μg/kg two days before the operation and at the second, sixth, and twelfth day after the operation and then every sixth day. […] After transplantation kidney functions were restored within 10 hours.
(§6) The administration schedule of (2'-5')A2 Ar-epoxy was modified slightly for the second group of monkeys. The preparation was injected two days before the operation and every other day at a concentration of 50 μg/kg during the entire post-transplantation period. […] The number of T-helpers dropped correspondingly from 37% to 7%. […] During the entire postoperative period, this activity tendency continues.

The subject of assay [2] is T-helper and T-killer cells. Description: T-helper and T-killer cells in monkeys after kidney transplantation. The settings on record: 50 μg/kg IV every 48 hours; first two post-surgical weeks. How it is done: as §4, §5, §6
Assay [3] relates to T-suppressors. Description: Immune system of monkeys: T-suppressors, flow cytofluorografic analysis. The settings on record: for T-suppressor: single IV 25 μg/kg; for T-suppressors: single IV 50 μg/kg. The procedure: Immunosuppressive activity of the prototype 2'-5'A3 and two analogues (2'-5')A2 Ar-epoxy and (2'-5')A2 A^l-epoxy were investigated in monkeys. The experiments were performed on 4 year-old Macaque Rh. monkeys. The levels of the principal subpopulations of T-lymphocytes, IgA, IgG, IgM and the amount of α- and γ-interferon and interleukin II after administration (2'-5')olygoadenylate and its analogies at the concentration of 50 and 25 μg/kg of the body weight was investigated.
as §1, §2, §3

With “Adenylyl (2'-5')adenylyl (2'-5')-9-(2,3-anhydro-β-D-ribofuranosyl) adenine disodium salt [(2'-5')A2 Ar-epoxy]”, the T-helpers in assay [1] (day 1 post-op.) turned out to be 8%; in assay [1] (day 5 post-op.), 39.9%; in assay [1] (day 8 post-op.), 32%; in assay [1] (day 13 post-op.) it was 34.7%; in assay [1] (day 18 post-op.) it was 14.5%. In addition, in assay [1] (second group, 50 μg/kg every other day, 7 days after surgery, from 37%), the “number of T-helpers” value came to 7%. Besides, the “retained level of T-helper and T-killer cells relative to normal value” in assay [2] worked out at 30%. In addition, the “effect on T-suppressors, in words” value in assay [3] (25 and 50 μg/kg IV) is recorded as “suppresses the number of T-suppressor cells”. Also, the T-suppressor in assay [3] (day 0 (baseline)) stood at 47%; in assay [3] (day 1), 40%; in assay [3] (day 2), 21%; in assay [3] (day 4) it was 11%; in assay [3] (day 8) it was 11%; in assay [3] (day 12), 14%. The substance further displayed a T-suppressor in assay [3] (day 21) of 46%. For the same substance, the T-suppressors is listed as 43% in assay [3] (day 0 (baseline)); 31% in assay [3] (day 1); 19% in assay [3] (day 2); 12% in assay [3] (day 4); 7.4% in assay [3] (day 8); 13% in assay [3] (day 12). For the same substance, the T-suppressors in assay [3] (day 21) came to 44%.
